US4117118A, “Organic compounds” (Sandoz Ltd., priority 1976, dated 1978)

Tests used:
[1] = amorphous form
Excerpt: Behaviour in the thin layer chromatogram (substance spots made visible with iodine vapour): […]

[2] = system: Aspergillus niger; conditions: standard tests

C/C=C/C[C@@H](C)[C@@H](O)[C@H]1C(=O)N[C@@H](C)C(=O)N(C)CC(=O)N(C)[C@@H](CC(C)C)C(=O)N[C@@H](C(C)C)C(=O)N(C)[C@@H](CC(C)C)C(=O)N[C@@H](C)C(=O)N[C@H](C)C(=O)N(C)[C@@H](CC(C)C)C(=O)N(C)[C@@H](CC(C)C)C(=O)N(C)[C@@H](C(C)C)C(=O)N1C [S 7481/F-2, Cyclosporin B]
Solubility in most of the usual organic solvents [1]: readily soluble
Solubility in petroleum ether and water [1]: practically insoluble
Inhibition of the growth of Aspergillus niger [2]: inhibition of the growth
